Data set [1] has as its system type I IFN response elements (ISREs). Put plainly: ISRE luciferase reporter metabolic screen (2fTGH-ISRE-CBG99 cell line). The class given is cell-based. The source says: Therefore, a library of microbiome associated metabolites was screened for the ability to enhance type I IFN signaling.^21 A reported cell line that harbors multiple type I IFN response elements (ISREs) driving firefly luciferase was utilized.^22 Each metabolite was screened for the ability to enhance reporter activity in the background of type I IFN or polyIC (an inducer of type I IFN production) treatment (schematic FIG. 4A). Using this methodology, 11 metabolites were identified that increased reporter activity following polyIC co-stimulation (FIG. 4B) and 5 metabolites that increased ISRE reporter activity with type I IFN co-stimulation (FIG. 10).
Metabolites were screened using the 2fTGH-ISRE-CBG99 luciferase cell line.^22 The day before screening the reporter cells were plated at 3×10^4 cell/well in 96 well plates. […] Luciferase was measured at 14 hours post-treatment for IFN-β, and 24 hours post-treatment for poly(IC) using the […] […] Plates were read on a luminometer (1 second read time) using the CYTATION 5 (BioTek). For secondary validation, cells were treated with 1000 μM, 100 μM, 10 μM, and 1 μM of metabolite and 5 or 50 U/ml of IFN-β (PBL Assay Science) or 2.5 or […] of poly(IC) (Amersham Biosciences) and measured as above.
In general terms: A reporter such as luciferase makes a cellular process visible.

The next data set concerns type I IFN activity. In kind it is in vivo, mice. The conditions noted are these: after 2-week antibiotic course; desaminotyrosine orally plus polyIC injections vs polyIC alone.
For data set [2], the system named is H1N1 influenza strain PR8. The experiment in a line: Influenza infection of mice, strain PR8. The conditions noted are these: mice infected with PR8. The class given is in vivo. The source says:
(§1) FIG. 19A, FIG. 19B, FIG. 19C, FIG. 19D, FIG. 19E, FIG. 19F, FIG. 19G, FIG. 19H, FIG. 19I, FIG. 19J, FIG. 19L, FIG. 19K, FIG. 19M, and FIG. 19N (FIG. 19A and FIG. 19B) Representative images of influenza H1N1 staining by polyclonal antibody on lung cross sections from wild-type (WT) (FIG. 19A) and Irgm1^−/− (FIG. 19B) mice 6 days postinfection (representative images from 5-6 mice per group from two experiments). Bar=200 μm. (FIG. 19C and FIG. 19D) Stool (FIG. 19C) and serum (FIG. 19D) desaminotyrosine levels measured by mass spectroscopy in wild-type mice mock or treated with two weeks of antibiotics and then treated with 200 mM desaminotyrosine in drinking water for one week (n=5-13 per group from two experiments). (FIG. 19E, FIG. 19F, FIG. 19G, and FIG. 19H) Kaplan-Meier survival analysis of nonantibiotic and antibiotic-treated wild-type mice given control or desaminotyrosine in drinking water and then infected with H1N1 influenza strains PR8 (FIG. 19E and FIG. 19F) or Cali/09 (FIG. 19G and FIG. 19H) (n=10 mice per group). *p<0.05 by Mantel-Cox test. (FIG. 19I) Kaplan-Meier survival analysis of wild-type mice treated with indicated antibiotic(s) and then infected with influenza (n=20 mice per group from two experiments). *p<0.05, **p<0.01, and ****p<0.0001 compared to mock treated infected mice by Mantel-Cox test with Bonferroni-corrected threshold. […]

For data set [3], the system named is H1N1 influenza strain California/09. The experiment in a line: Influenza infection of mice, strain California/09. In kind it is in vivo. The conditions noted are these: mice infected with California/09.
Description: as §1

The test system of data set [4] is bone marrow derived macrophages infected with Influenza H1N1. In kind it is cell-based.
The subject of data set [5] is type I IFN signaling in BMDMs. The class given is cell-based, mouse.
For a further data set, the system named is epithelial proliferation. The experiment in a line: Crypt height and epithelial proliferation in mice. The class given is in vivo. The note with it: VNAM 2 weeks, then 200 mM desaminotyrosine in drinking water. Here is the method: FIG. 13 depicts an experimental scheme of mice treated with VNAM for 2 weeks and then give +/−200 mM desaminotyrosine in the drinking water for 1 week. After 1 week, the mice were continued on +/−200 mM desaminotyrosine and then treated with +/−1 mg/kg polyIC intraperitoneally once per day for 4 days and then sacrificed 1 day later.
(FIG. 14A, FIG. 14B, FIG. 14C, and FIG. 14D) Representative images of the crypt height for control (FIG. 14A), polyIC (FIG. 14B), deasminotyrosine, (FIG. 14C), and desaminotyrosine+polyIC (FIG. 14D) treated mice. FIG. 14E depicts a graph quantifying the crypt height after the various treatments relative to the control treated mice.
To examine the effects of desaminotyrosine on epithelial proliferation, mice were treated with and without antibiotics for 2 weeks and then with or without desaminotyrosine for […] and with or without polyIC (FIG. 13).

In data set [6] the test system is dextran sodium sulfate (DSS) induced colitis. The class given is in vivo. The conditions noted are these: antibiotic treated mice, 2.5% DSS.
The nature of data set [7]: Barrier function: 4 kD dextran (FD4) in serum after gavage. The class given is in vivo, mice. The conditions noted are these: VNAM 2 weeks then 200 mM desaminotyrosine 1 week in drinking water. Here is the method:
FIG. 17A depicts a graph quantifying the amount of damaged area following treatment with DSS +/−desaminotyrosine. FIG. 17B depicts a graph dextrain-FD4 measured in the serum of mice treated with VNAM for 2 weeks and then +/−200 mM of desaminotyrosine for 1 week in the drinking water. 4 kD Dextran was administered by gavage and serum collected 4 hours post-gavage.

Data set [8] concerns influenza A/WSN/33 (rWSN) H1N1 virus. The note with it: mouse, in vivo.

Structures are written as SMILES. Entries after “also recorded” stand apart in the source; their conditions may differ.

As to `O=C(O)CCc1ccc(O)cc1` [desaminotyrosine, 3-(4-hydroxyphenyl)propanoic acid], the “ISRE reporter activity (fold increase in luminescence), type I IFN signaling” value in data set [1] (with polyIC co-stimulation) is given as “enhanced type I IFN signaling in a dose-dependent manner”. In [1] (with type I IFN (IFN-β) co-stimulation), the “ISRE reporter activity (fold increase in luminescence), type I IFN signaling” value is given as “enhanced type I IFN signaling in a dose-dependent manner”. In addition, the “type I IFN activity in the serum” value in the data set with type I IFN activity is reported as “increased type I IFN activity in the serum”. In data set [2], the “protection (survival)” value was “protected”. Moreover, the “protection (survival)” value in data set [3] is given as “protected”. In addition, the “influenza RNA in bone marrow derived macrophages” value in data set [4] (24 hours pretreatment (100 μM), then infection MOI-2 48 hours, IFN/Ifnar-dependent) is “decreased influenza RNA; also recorded: depleted”. Also, in [4] (pretreated BMDMs, Ifnar-dependent), the “ISG transcripts (Oas1, IP-10) after in vitro influenza infection” value is on record as “increased ISG transcripts”. Moreover, the “polyIC and type I IFN expression of IP-10” value in data set [5] (BMDMs from Mavs−/− mice) is on record as “still enhanced”. Further, in data set [5] (BMDMs from Stat1−/− mice, polyIC or type I IFN with desaminotyrosine), the IP-10 expression result was “not enhanced”. For the same compound, the “ISG transcript abundance (IP-10)” value in data set [5] (wild-type BMDMs, combined with either polyIC or type I IFN) is reported as “increased”. Besides, the crypt height entry in the data set with epithelial proliferation is “increased crypt height”. The epithelial proliferation entry with epithelial proliferation (alone) was “increased; also recorded: stimulated epithelia proliferation in the small intestine alone”. In addition, the “response to DSS injury (epithelial proliferation, crypt preservation, damage)” value in data set [6] is “promoted epithelial profliferation and crypt preservation; also recorded: rescues DSS damage”. Further, the “damaged area of the distal colon after DSS treatment” value in data set [6] (with desaminotyrosine (control mice ~90%)) is approximately 8%. In addition, the “barrier function (dextran-FD4 in serum 4 hours post-gavage)” value in data set [7] is on record as “no effect on barrier function; also recorded: Not significant”. In addition, in data set [8], the “airway epithelial damage and apoptosis (H+E, cleaved caspase 3)” value was “greater airway epithelial damage and apoptosis were observed in control lungs”; the “desaminotyrosine mediated protection (survival)” value is reported as “abolished”; the “phenotypes associated with antibiotic treatment (morbidity and mortality)” value was “recused the phenotypes associated with antibiotic treatment”; the “viral RNA in the lungs (matrix, qRT-PCR)” value is “less viral RNA was found in the lungs”.
Regarding `Cc1ncc([N+](=O)[O-])n1CCO` [metronidazole, reference compound], in data set [8], the influenza associated-mortality entry is on record as “enhanced influenza associated-mortality”.
The same measure, in the same setting: to `CN[C@H](CC(C)C)C(=O)N[C@H]1C(=O)N[C@@H](CC(N)=O)C(=O)N[C@H]2C(=O)N[C@H]3C(=O)N[C@H](C(=O)N[C@H](C(=O)O)c4cc(O)cc(O)c4-c4cc3ccc4O)[C@H](O)c3ccc(c(Cl)c3)Oc3cc2cc(c3O[C@@H]2O[C@H](CO)[C@@H](O)[C@H](O)[C@H]2O[C@H]2C[C@](C)(N)[C@H](O)[C@H](C)O2)Oc2ccc(cc2Cl)[C@H]1O` [vancomycin, reference compound] belongs “enhanced influenza associated-mortality”.

Values taken from patent US11058653B2, “Compositions comprising desaminotyrosine and uses thereof to enhance type I interferon stimulation” (Washington University, priority 2016, dated 2021).
